Experimental data published in PMC9406419, “OATD-02 Validates the Benefits of Pharmacological Inhibition of Arginase 1 and 2 in Cancer” (Cancers, 2022).

What was measured:
K562 tumours = assay: K562 xenograft model in T and NK cell-deficient Fox Chase SCID Beige mice; format: in vivo, mouse; conditions: 50 mg/kg PO BID from day 7, day 19
Protocol: (§1) CT26 and K562 in vivo experiments were conducted at Molecure SA. All experimental procedures were approved by the 1st Local Ethics Committee in Warsaw (Poland). For the syngeneic CT26 model, 7–8-week old BALB/c females (n = 9–18 per group, BALB/cAnNCrl, Charles River Laboratories) were injected subcutaneously in the right flank with 5 × 10^5 CT26 cells. […] Anti-PD-L1 antibody (InVivoPlus anti-mouse PD-L1, clone 10F.9G2, BioXCell, lot 615416D1) was injected intraperitoneally at 2.5 mg/kg on days: 8, 10, 12, 14 and 16 post tumour cells inoculation. Control groups received vehicle (saline) or isotype antibody (InVivoPlus rat IgG2b, anti-KLH, BioXCell, lot 629816D1). For the xenograft K562 model, 7–8 week-old athymic nude mice (n = 8–11 per group, Crl:NU(NCr)-Foxn1^nu, Charles River Laboratories) or NK cell-deficient Fox Chase SCID Beige mice (n = 10–12 per group, CB17.Cg-Prkdc^scidLyst^bg-J/Crl, Charles River Laboratories) were injected subcutaneously in the right flank with 1 × 10^7 K562 cells. […] Tumour volume measured by a digital calliper (width × length × depth × π/6) was recorded three times per week. Animals were euthanized when tumours were necrotized or volume exceeded 2000 mm^3. Renca in vivo efficacy study was performed at Crown Biosciences Inc. (Taicang, China). […] Tumour volumes (length × width^2 × 0.5) were measured twice per week. […]

recombinant human ARG1 = target: T1, recombinant human ARG1 (Homo sapiens, UniProt P05089); assay: Recombinant arginase inhibition assay (colorimetric urea detection), ARG1; format: biochemical; conditions: recombinant human ARG1, 10 mM L-arginine, 37 °C, 1 h, pH 7.4
T1 construct: made in house; host or cells: E. coli
T1 sequence (P05089 1-322): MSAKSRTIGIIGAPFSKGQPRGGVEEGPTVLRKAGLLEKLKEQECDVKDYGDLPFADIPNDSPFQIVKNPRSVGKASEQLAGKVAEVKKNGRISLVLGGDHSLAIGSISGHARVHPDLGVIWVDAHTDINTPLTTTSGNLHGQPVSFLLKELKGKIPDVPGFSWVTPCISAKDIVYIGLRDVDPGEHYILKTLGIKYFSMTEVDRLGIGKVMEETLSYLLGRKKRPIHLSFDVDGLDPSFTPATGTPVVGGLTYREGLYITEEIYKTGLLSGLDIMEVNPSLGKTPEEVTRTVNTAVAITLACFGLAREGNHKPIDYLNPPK
Protocol: The enzymatic reaction was carried out at 37 °C for 1 h in the assay buffer (100 mM sodium phosphate buffer, 130 mM NaCl, pH 7.4) with the addition of 1 mg/mL BSA in the presence of 200 µM MnCl2 (enzyme cofactor), 10 mM (for ARG1) or 20 mM (for ARG2) of L-arginine hydrochloride (enzyme substrate), and serial dilutions of the test compounds. The inhibition of the arginase activity was determined by colorimetric detection of produced urea, as previously described [29] with minor changes. Briefly, 150 µL of freshly prepared developing reagent (2 mM o-phthaldialdehyde (OPA), 2 mM N-(1-naphthyl)ethylenediamine dihydrochloride (NED), 50 mM boric acid, 1 M sulfuric acid, 0.03% Brij-35) was added to each well, incubated for 20 min at RT, then the absorbance at 515 nm was measured. Normalized values were fitted to a four-parameter equation using GraphPad Prism and IC50 values were determined.

Renca tumours = assay: Syngeneic Renca renal adenocarcinoma model with plasma L-arginine and tumour flow cytometry; format: in vivo, mouse
Protocol: CT26 and K562 in vivo experiments were conducted at Molecure SA. All experimental procedures were approved by the 1st Local Ethics Committee in Warsaw (Poland). For the syngeneic CT26 model, 7–8-week old BALB/c females (n = 9–18 per group, BALB/cAnNCrl, Charles River Laboratories) were injected subcutaneously in the right flank with 5 × 10^5 CT26 cells. […] Anti-PD-L1 antibody (InVivoPlus anti-mouse PD-L1, clone 10F.9G2, BioXCell, lot 615416D1) was injected intraperitoneally at 2.5 mg/kg on days: 8, 10, 12, 14 and 16 post tumour cells inoculation. Control groups received vehicle (saline) or isotype antibody (InVivoPlus rat IgG2b, anti-KLH, BioXCell, lot 629816D1). For the xenograft K562 model, 7–8 week-old athymic nude mice (n = 8–11 per group, Crl:NU(NCr)-Foxn1^nu, Charles River Laboratories) or NK cell-deficient Fox Chase SCID Beige mice (n = 10–12 per group, CB17.Cg-Prkdc^scidLyst^bg-J/Crl, Charles River Laboratories) were injected subcutaneously in the right flank with 1 × 10^7 K562 cells. […] Tumour volume measured by a digital calliper (width × length × depth × π/6) was recorded three times per week. Animals were euthanized when tumours were necrotized or volume exceeded 2000 mm^3. Renca in vivo efficacy study was performed at Crown Biosciences Inc. (Taicang, China). All experimental procedures on animals were approved by the Institutional Animal Care and Use Committee (IACUC) and conducted in accordance with the regulations of the Association for Assessment and Accreditation of Laboratory Animal Care (AAALAC). For the syngeneic Renca model, 6–7 week-old BALB/c females (n = 12 per group, Shanghai Lingchang Biotechnology, Shanghai, China) were injected subcutaneously in the right flank with 1 × 10^6 Renca cells. Tumour volumes (length × width^2 × 0.5) were measured twice per week. OATD-02 was dosed twice per day at 75 mg/kg by oral gavage. A dosing holiday was given to individuals with bodyweight loss exceeding 15% of the initial body weight and the treatment was resumed when the bodyweight loss recovered to less than 10%. Due to the cachexic nature of the Renca model, all animals were supplemented with DietGel to help maintain their body weight.
Dissected tumours were dissociated to obtain single-cell suspensions for antibody staining and immune cell assessment. Prior to the antibody staining, dead cells were labelled with the Fixable Viability Due eFluor™ 780 (eBiosciences, San Diego, CA, USA). The following anti-mouse antibodies were used for flow cytometry: anti-CD45-FITC (clone 30-F11, Biolegend, San Diego, CA, USA), anti-CD3-BUV395 (clone 145-2C11, BD), anti-CD4-BV421 (clone GK1.5, Biolegend), anti-CD8-PE-eFluor610 (clone 53-6.7, eBiosciences), anti-Foxp3-PE (clone FJK-16S, eBiosciences), anti-CD11b-PE-Cy7 (clone M1/70, Biolegend), anti-F4/80-BV510 (clone BM8, Biolegend), and anti-Gr1-APC (clone RB6-8C5, Biolegend).
The concentrations of OATD-02, the reference ARGi or L-arginine were determined in plasma samples or tumour homogenates using liquid chromatography coupled with tandem mass spectrometry (LC-MS/MS). Sample preparation was based on protein precipitation using acetonitrile. The resulting supernatants were analysed using hydrophilic interaction liquid chromatography (HILIC) with subsequent MS detection based on optimised MRM transitions. Matrix-matched calibration and quality control samples were prepared for quantification of OATD-02 and the reference ARGi. Due to the endogenous character of L-arginine, a surrogate matrix was used for its detection.
All statistical analyses were performed using GraphPad Prism (ver. 9, GraphPad Software, Inc., San Diego, CA, USA). Data sets with normal distribution were described as means with SEM (standard error of the mean). Otherwise, the median value was shown and the U Mann–Whitney or the Kruskal–Wallis tests were applied for intergroup comparisons. Differences at p-value less than 0.05 were considered statistically significant. […]

CT26 tumours = assay: Syngeneic CT26 model, combination with epacadostat and anti-PD-L1 antibody; format: in vivo, mouse; conditions: suboptimal doses: OATD-02 50 mg/kg PO BID; epacadostat 30 mg/kg PO BID; anti-PD-L1 2.5 mg/kg IP days 8, 10, 12, 14, 16
Protocol: as §1

[1] = Tolerability in animal models; format: in vivo

CN(C)C[C@@H]1CC[C@@H](CCB(O)O)C[C@]1(N)C(=O)O [OATD-02]
final TGI, K562 tumor volumes, Fox Chase SCID Beige mice (K562 tumours): 47% | IC50 (recombinant human ARG1): 17 nM | TGI, syngeneic Renca model (Renca tumours; 75 mg/kg PO BID from day 1, day 22 post-inoculation, not statistically significant): 31% | levels of Tregs in the tumour microenvironment (Renca tumours; Renca tumours, flow cytometry, Foxp3+ within CD4+ T cells, p = 0.0196): decreased levels | levels of MDSCs in the tumour microenvironment (Renca tumours; Renca tumours, flow cytometry, p = 0.0173): decreased levels | CD8+/Treg cell ratio (Renca tumours; Renca tumours, flow cytometry, p = 0.0281): beneficial increase | levels of neutrophils in the tumour microenvironment (Renca tumours; Renca tumours, flow cytometry, p = 0.0284): decreased levels | fold increase in plasma L-arginine (Renca tumours; Renca-bearing mice, 75 mg/kg PO BID, 16 h upon last dose): 6.6 fold | TGI, CT26 tumor growth inhibition - day 24 (CT26 tumours): 33% | safety and tolerability [1]: safe and well tolerated
